Literature values as cited in patent US20060201863A1, “Sterilization water tank” (priority 2003, published 2006).

Tests used:
Bacteria = details: against Bacteria
Colitis germs [1] = details: against Colitis germs
Staphylococcus = details: against Staphylococcus
Pseudomonas aeruginosa = details: against Pseudomonas aeruginosa
Salmonella = details: against Salmonella
Pneumonia bacillus = details: against Pneumonia bacillus
Rice-straw bacillus = details: against Rice-straw bacillus
Colitis germs [2] = details: silver in an ionized state

Q: Which results are given for [Cu+2] [Copper ion, reference compound]?
A: MIC (minimum inhibitory concentration) (Bacteria): 400 ppm; MIC (minimum inhibitory concentration) (Colitis germs [1]): 200 ppm; MIC (minimum inhibitory concentration) (Staphylococcus): 400 ppm; MIC (minimum inhibitory concentration) (Pseudomonas aeruginosa): 400 ppm; MIC (minimum inhibitory concentration) (Salmonella): 400 ppm; MIC (minimum inhibitory concentration) (Pneumonia bacillus): 200 ppm; MIC (minimum inhibitory concentration) (Rice-straw bacillus): 400 ppm

Q: For [Ag+] [Silver ion], which “MIC (minimum inhibitory concentration)” value (Bacteria) is on record?
A: Its value is 0.78 ppm.

Q: What about the “MIC (minimum inhibitory concentration)” value (Colitis germs [1]) of the same compound?
A: The value was 6.3 ppm.

Q: And the “MIC (minimum inhibitory concentration)” value (Staphylococcus)?
A: The value was 0.78 ppm.

Q: And the “MIC (minimum inhibitory concentration)” value (Pseudomonas aeruginosa)?
A: The value was 0.78 ppm.

Q: And the “MIC (minimum inhibitory concentration)” value (Salmonella)?
A: Its value is 0.78 ppm.

Q: And the “MIC (minimum inhibitory concentration)” value (Pneumonia bacillus)?
A: The value was 0.78 ppm.

Q: What about the “MIC (minimum inhibitory concentration)” value (Rice-straw bacillus) of the same compound?
A: Its value is 1.56 ppm.

Q: What about the “amount that may kill colitis germs” value (Colitis germs [2]) of the same compound?
A: The value was “about several ten”.
